In US20230313199A1, “TARGET FOR MODULATING BODY MASS” (Massachusetts Institute of Technology, priority 2020, published 2023):

Assays:
4B8^FL cells [1] = assay: FPT intensity in 4B8 cells complemented with full length MFSD7C; format: cell-based, human; conditions: 40 μM heme 1 hour
Description: FIGS. 4A-4H show NTD of MFSD7C mediates heme effect on mitochondrial respiration. FIGS. 4A-4C show comparison of basal OCR (FIG. 4A), maximal OCR (FIG. 4B) and ECAR (FIG. 4C) of THP-1, 4B8, and 4B8^FL and 4B8^ΔN cells treated with vehicle or heme for 1 hour (n=18 separate experiments). […] Cells were incubated with FPT for 6 hrs, washed and reseeded in poly-lysine coated glass bottom dishes. After cells attached to the glass, medium containing 40 μM heme was added. Cells in the same field were imaged immediately and again 1 hour later. Relative FPT fluorescent intensities, normalized to THP-1, from three experiments are shown. (n=3 independent experiments). […] THP-1 cells were co-cultured with 4B8, 4B8^FL, or 4B8^ΔN in FPT solution for 6 hrs, washed and reseeded in poly-lysine coated glass bottom dishes. […] THP-1, 4B8, 4B8^FL and 4B8^ΔN cells were treated with vehicle or heme for 1 hour and MMP was measured by using JC-10 Mitochondrial Membrane Potential Assay Kit followed by flow cytometry. […] Shown are representative Western blotting data (FIG. 4G) and quantification of band intensities from n=3 independent experiments (FIG. 4H). P-values were calculated using two-way ANOVA (*p<0.05, **p<0.01, ***p<0.005). […]
In the second approach, we used fluorescent polymeric thermometer (FPT), which we synthesized in-house (see above). […] Then the fluorescence intensities were determined by a flow cytometer.

[2] = biological target: T1, MFSD7C interactions with ETC components (CYC1, NDUFA4, COX4i1, ATP5h, ATP5c1) (Mus musculus, UniProt Q91X85); assay: Co-IP of HA-tagged MFSD7C with FLAG-tagged ETC components in transfected 293FT cells; format: cell-based, murine; conditions: 10 μM or 40 μM heme for one hour before cell lysis, increasing level
T1 construct: expressed in transfected cells; host or cells: 293FT cells
Description: Co-transfection and immunoprecipitation. For co-IP, HA-tagged MFSD7C was co-transfected with FLAG-tagged HMOX1 (Origene Catalog No. MR203944), CYC1, COX4I1, NDUFA4, ATP5h, ATP5c1 into 293FT cells using TransIT®-LT1 Transfection Reagent (Mirus). Thirty-six hours after transfection, the cells were lysed using cold Lysis Buffer containing 20 mM Tris-HCl (pH 7.4), 150 mM NaCl, 0.1% NP-40, 10% glycerol, proteinase inhibitor (Sigma Catalog No. 4693132001), and phosphatase inhibitors (Sigma Catalog No. 4906845001). The clear supernatants from the lysate were incubated with M2-magnetic beads conjugated with anti-FLAG antibody (Sigma Catalog No. M8823) for 2 hours at 4° C. Then the beads were washed twice and eluted by the 3× FLAG peptides (Sigma Catalog No. F4799).
To determine the effect of heme on MFSD7C interactions with ETC components, HMOX1 or SERCA2b, 293FT cells were transiently transfected with HA-tagged murine MFSD7C and FLAG-tagged murine CYC1, NDUFA4, COX4i1, ATP5h, ATP5c1, HMOX1 or SERCA2b. 35 hrs later, co-transfected cells were incubated with DMSO (vehicle) or 10 μM or 40 μM of heme for one hour before lysis. Cell lysates were precipitated with anti-HA antibody, eluted with HA peptide, further precipitated with anti-FLAG antibody, eluted with FLAG peptide, and then subjected to Western blotting with anti-HA and anti-FLAG antibodies. […]

4B8^FL cells [3] = assay: OCR and ECAR (Seahorse) in 4B8 cells complemented with full length MFSD7C; format: cell-based, human; conditions: heme 1 hour
Description: FIGS. 4A-4H show NTD of MFSD7C mediates heme effect on mitochondrial respiration. FIGS. 4A-4C show comparison of basal OCR (FIG. 4A), maximal OCR (FIG. 4B) and ECAR (FIG. 4C) of THP-1, 4B8, and 4B8^FL and 4B8^ΔN cells treated with vehicle or heme for 1 hour (n=18 separate experiments). […] Cells were incubated with FPT for 6 hrs, washed and reseeded in poly-lysine coated glass bottom dishes. After cells attached to the glass, medium containing 40 μM heme was added. Cells in the same field were imaged immediately and again 1 hour later. Relative FPT fluorescent intensities, normalized to THP-1, from three experiments are shown. (n=3 independent experiments). […] THP-1, 4B8, 4B8^FL and 4B8^ΔN cells were treated with vehicle or heme for 1 hour and MMP was measured by using JC-10 Mitochondrial Membrane Potential Assay Kit followed by flow cytometry. […] Shown are representative Western blotting data (FIG. 4G) and quantification of band intensities from n=3 independent experiments (FIG. 4H). P-values were calculated using two-way ANOVA (*p<0.05, **p<0.01, ***p<0.005). […]
Measurements of OCR, ECAR, and MMP. Oxygen consumption rate (OCR) and extracellular acidification rate (ECAR) were measured using XF96e Seahorse Extracellular Flux Analyzer per manufacturer's protocol. […]

T1 sequence (Q91X85 whole entry): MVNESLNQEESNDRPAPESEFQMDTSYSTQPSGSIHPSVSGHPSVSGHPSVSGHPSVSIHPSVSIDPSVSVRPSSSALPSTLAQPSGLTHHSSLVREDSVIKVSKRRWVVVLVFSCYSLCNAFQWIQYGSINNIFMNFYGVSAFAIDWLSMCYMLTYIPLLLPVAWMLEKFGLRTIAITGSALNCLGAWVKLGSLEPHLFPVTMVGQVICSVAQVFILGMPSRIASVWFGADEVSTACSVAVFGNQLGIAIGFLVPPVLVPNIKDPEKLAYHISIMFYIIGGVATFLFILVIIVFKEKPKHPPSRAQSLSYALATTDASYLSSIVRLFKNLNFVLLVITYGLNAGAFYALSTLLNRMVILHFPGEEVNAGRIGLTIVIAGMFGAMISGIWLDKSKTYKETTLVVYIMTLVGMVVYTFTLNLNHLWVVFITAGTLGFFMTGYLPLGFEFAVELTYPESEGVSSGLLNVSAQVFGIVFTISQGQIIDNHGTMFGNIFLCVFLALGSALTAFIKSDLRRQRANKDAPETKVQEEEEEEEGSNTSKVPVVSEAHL

Structure (SMILES): C=CC1=C(C)c2cc3[n-]c(cc4[n-]c(cc5nc(cc1n2)C(C)=C5C=C)c(C)c4CCC(=O)O)c(CCC(=O)O)c3C.[Fe+2] [heme]
- FPT intensity (4B8^FL cells [1]): increased
- ETC components co-precipitated with MFSD7C [2]: less or very little ETC components co-precipitated with MFSD7C
- ECAR (4B8^FL cells [3]): increased
- OCR (4B8^FL cells [3]): increased
